Article PMC9656319, “Pharmacokinetics and Tissue Distribution of Coumarins from Tagetes lucida in an LPS-Induced Neuroinflammation Model” (Plants, 2022)

Tests used:
[1] = set-up: method as in PMID 22465507; details: rats, distribution of SC in different organs; cited from earlier work
[2] = Pharmacokinetic study in plasma after oral hexanic extract of Tagetes lucida, healthy and LPS-damaged mice; type: in vivo, ICR mice; details: plasma; for Cmax / AUC(0-inf) / MRT / Tmax / half-life / AUC(0-t): ICR, mouse, po, 10 mg/kg; for Cmax / AUC(0-inf) / MRT / Tmax / half-life / AUC(0-t) / Cl/F: 10 mg/kg oral hexanic extract, mean ± SEM (n = 5); for Cmax: non-compartmental; for AUC(0-t): to 6 h
Method: The optimized HPLC-validated method for the quantification of coumarins present in the hexane extract of T. lucida was used to evaluate the concentration profiles over time in the plasma, brain, kidney, and spleen biological matrices after an oral administration of 10 mg/kg of the extract.
Blood samples were obtained from the retro-orbital sinus of mice and collected in heparinized tubes. Plasma was separated by centrifugation at 3500 rpm for 5 min and stored in new Eppendorf tubes at −70 °C, until further processing.
(§1) One hundred microliters of plasma and organs samples, spiked with calibration and QC concentration or samples from the pharmacokinetic study, were mixed with 300 µL of acetonitrile containing the IS at 10 µg/mL for protein precipitation, and vortexed for 3 min. Then, 200 µL of dichloromethane were added, for liquid–liquid extraction of the bioactive compounds, and vortexed for 5 min. The mixture was centrifuged at 14,000 rpm for 10 min, and the extracted organic layers were placed in new tubes, until completely dry at room temperature. For quantitative analysis, samples were resuspended in 100 µL of methanol, transferred to sampling vials, and injected into the chromatographic system, described below.
A pharmacokinetic study was carried out in sixty mice, divided in six subgroups, according to sample collection times. An acute inflammation process by the intraperitoneal (i.p.) administration of LPS at 2 mg/kg was induced in half of the mice per group, while the other half received an i.p. injection of saline solution. Ten min after the damage was induced, the mice were administered with an oral dose of 10 mg/kg of the bioactive fraction dissolved in a 1% Tween-20 aqueous solution. Blood and tissue samples were obtained and processed at 0, 0.25, 0.75, 1.5, 2, 4, and 6 h post-dosing, as indicated in the “Samples collection” and “Plasma and tissue samples processing” sections.
Pharmacokinetic parameters of PE, SC, DF, HR, and PU in plasma were calculated by PKSolver software.

[3] = Tissue distribution in the brain after oral hexanic extract of Tagetes lucida, healthy and LPS-administrated mice; type: in vivo, ICR mice; details: after the initial absorption process
Method: After blood sampling, the mice were sacrificed in a chamber with chloroform by an overdose of anesthesia. The brain, kidney, and spleen were quickly removed and rinsed with saline solution, fresh weight was recorded, and immediately placed on ice. Subsequently, the organs were freeze-dried, grounded, and weighted. The lyophilized organs were individually suspended in methanol in a 1:1 volume: dry weight ratio for 24 h, then sonicated for 5 min and centrifuged at 14,000 rpm for 7 min. The supernatants were recovered in clean tubes and stored at −70 °C until their use.
as §1
A pharmacokinetic study was carried out in sixty mice, divided in six subgroups, according to sample collection times. An acute inflammation process by the intraperitoneal (i.p.) administration of LPS at 2 mg/kg was induced in half of the mice per group, while the other half received an i.p. injection of saline solution. Ten min after the damage was induced, the mice were administered with an oral dose of 10 mg/kg of the bioactive fraction dissolved in a 1% Tween-20 aqueous solution. […]
To evaluate the distribution in the tissues, bioactive coumarins were quantified in the lyophilized organs, and concentrations were adjusted to the volumes of liquid obtained by the difference between the dry and fresh weights of each tissue to simulate a distribution approximation of the compounds by tissue system.

[4] = Stability of the analytes in spiked plasma, brain, kidney and spleen matrices (autosampler, long-term, freeze-thaw); type: physicochemical, mice; details: for Stability Autosampler RE (%): processed samples in autosampler vials 24 h room temperature; for Stability Freeze-Thaw RE (%): three cycles (−4 °C to 25 °C); for Stability Long-Term RE (%): −70 °C for 30 days
Method: The stability of the compounds obtained from each enriched matrices at the QC concentrations was evaluated under different conditions that covered the processing, handling, and storage phases that could be developed throughout the study.
Individual stock solutions of PE, SC, DF, HR, PU, and rutin (IS) were prepared separately in methanol (1 mg/mL) and stored at −4 °C until use. From the stocks, a working solution in methanol was prepared at a concentration of 200 µg/mL of each coumarin. Blank plasma or organs supernatant samples (80 µL) were spiked with 20 µL of serial dilutions of working solution to obtain calibration curves ranging between 0.156, 0.312, 0.625, 1.25, 2.5, 5, 10, 20, and 40 µg/mL of each coumarin. Quality control (QC) samples were prepared at three levels of 0.3 (low), 3 (medium), and 30 (high) µg/mL for each coumarin.
The stability of the analytes in plasma, brain, kidneys, and spleen was evaluated by the analyzed concentrations of QC subjected to three different conditions. Short-term stability was determined by analysis of samples processed in the autosampler vials at 24 h at room temperature. Long-term stability was tested on samples stored at −70 °C for 30 days. Freeze-thaw stability was determined after three cycles (−4 °C to 25 °C) on three consecutive days.

time at which the highest concentration in the brain tissue is reached [3]: 15 min
Stability Autosampler RE (%) ([4]; brain, nominal 0.3 µg/mL): -2.15%
Stability Freeze-Thaw RE (%) ([4]; brain, nominal 0.3 µg/mL): -1.98%
Stability Long-Term RE (%) ([4]; brain, nominal 0.3 µg/mL): -0.19%
Stability Autosampler RE (%) ([4]; brain, nominal 3.0 µg/mL): 0.37%
Stability Freeze-Thaw RE (%) ([4]; brain, nominal 3.0 µg/mL): -3.09%
Stability Long-Term RE (%) ([4]; brain, nominal 3.0 µg/mL): -0.94%
Stability Autosampler RE (%) ([4]; brain, nominal 30.0 µg/mL): 4.78%
Stability Freeze-Thaw RE (%) ([4]; brain, nominal 30.0 µg/mL): -2.00%
Stability Long-Term RE (%) ([4]; brain, nominal 30.0 µg/mL): -4.75%
Stability Autosampler RE (%) ([4]; kidney, nominal 0.3 µg/mL): 7.01%
Stability Freeze-Thaw RE (%) ([4]; kidney, nominal 0.3 µg/mL): 2.62%
Stability Long-Term RE (%) ([4]; kidney, nominal 0.3 µg/mL): 3.92%
Stability Autosampler RE (%) ([4]; kidney, nominal 3.0 µg/mL): 5.72%
Stability Freeze-Thaw RE (%) ([4]; kidney, nominal 3.0 µg/mL): 1.51%
Stability Long-Term RE (%) ([4]; kidney, nominal 3.0 µg/mL): 2.63%
Stability Autosampler RE (%) ([4]; kidney, nominal 30.0 µg/mL): -0.35%
Stability Freeze-Thaw RE (%) ([4]; kidney, nominal 30.0 µg/mL): 0.49%
Stability Long-Term RE (%) ([4]; kidney, nominal 30.0 µg/mL): 4.36%
Stability Autosampler RE (%) ([4]; plasma, nominal 0.3 µg/mL): 10.18%
Stability Freeze-Thaw RE (%) ([4]; plasma, nominal 0.3 µg/mL): -14.02%
Stability Long-Term RE (%) ([4]; plasma, nominal 0.3 µg/mL): -3.50%
Stability Autosampler RE (%) ([4]; plasma, nominal 3.0 µg/mL): 8.27%
Stability Freeze-Thaw RE (%) ([4]; plasma, nominal 3.0 µg/mL): 2.70%
Stability Long-Term RE (%) ([4]; plasma, nominal 3.0 µg/mL): -14.30%
Stability Autosampler RE (%) ([4]; plasma, nominal 30.0 µg/mL): 4.74%
Stability Freeze-Thaw RE (%) ([4]; plasma, nominal 30.0 µg/mL): -0.10%
Stability Long-Term RE (%) ([4]; plasma, nominal 30.0 µg/mL): -8.41%
Stability Autosampler RE (%) ([4]; spleen, nominal 0.3 µg/mL): -7.70%
Stability Freeze-Thaw RE (%) ([4]; spleen, nominal 0.3 µg/mL): -9.57%
Stability Long-Term RE (%) ([4]; spleen, nominal 0.3 µg/mL): -9.67%
Stability Autosampler RE (%) ([4]; spleen, nominal 3.0 µg/mL): -6.71%
Stability Freeze-Thaw RE (%) ([4]; spleen, nominal 3.0 µg/mL): -2.65%
Stability Long-Term RE (%) ([4]; spleen, nominal 3.0 µg/mL): 2.22%
Stability Autosampler RE (%) ([4]; spleen, nominal 30.0 µg/mL): -0.99%
Stability Freeze-Thaw RE (%) ([4]; spleen, nominal 30.0 µg/mL): -4.22%
Stability Long-Term RE (%) ([4]; spleen, nominal 30.0 µg/mL): -2.12%
SMILES: COc1cc2ccc(=O)oc2cc1OC [SC, scoparone]
quantification of the coumarin inside the brain [1]: not possible to quantify
Cmax ([2]; LPS-damaged ICR mice (LPS 2 mg/kg i.p.)): 1280 ± 110 ng/mL
AUC(0-inf) ([2]; LPS-damaged ICR mice): 2780 ± 210 ng·h/mL
MRT ([2]; LPS-damaged ICR mice): 2.26 ± 0.17 h
Tmax ([2]; LPS-damaged ICR mice): 42 ± 20.4 min
half-life ([2]; LPS-damaged ICR mice): 39 ± 3.6 min
AUC(0-t) ([2]; LPS-damaged ICR mice): 2770 ± 210 ng·h/mL
AUC(0-inf) ([2]; healthy ICR mice): 4030 ± 630 ng·h/mL
MRT ([2]; healthy ICR mice): 4.68 ± 1.16 h
Tmax ([2]; healthy ICR mice): 75 ± 15 min
half-life ([2]; healthy ICR mice): 173 ± 49.8 min
Cmax ([2]; healthy ICR mice): 970 ± 100 ng/mL
AUC(0-t) ([2]; healthy ICR mice): 2870 ± 90 ng·h/mL
pharmacokinetic characteristics in words ([2]; LPS-treated mice, Figure 3b, 3c): fast distribution and subsequent elimination
Cl/F ([2]; LPS-damaged ICR mice): 36.52 ± 2.68 (mg/kg)/(μg/mL)/h
Cl/F ([2]; healthy ICR mice): 26.64 ± 3.00 (mg/kg)/(μg/mL)/h
